Measurements taken from article PMC4638293 (The Journal of Veterinary Medical Science, 2015).
Marks after values point to notes of the source that are not given here.

Type: in vivo
Conditions: rat, PY 4 mg/kg oral; for Total amount in brain (tissue weight): whole brain; for Total amount in cecum (tissue weight): whole cecum; for Total amount in colon (tissue weight): whole colon; for Total amount in heart (tissue weight): whole heart; for Total amount in ileum (tissue weight): whole ileum; for Total amount in kidney (tissue weight): whole kidney; for Total amount in liver (tissue weight): whole liver; for Total amount in lung (tissue weight): whole lung; for Total amount in spleen (tissue weight): whole spleen; for Total amount in stomach (tissue weight): whole stomach; for Total amount in testes (tissue weight): whole testes; for Total amount in tongue (tissue weight): whole tongue; for Total amount in feces: 24 hr feces collection; for Total amount in duodenum (tissue weight): whole duodenum; for Total amount in jejunum (tissue weight): whole jejunum
[1] = 24 hr urine collection, mean ± SD, unit ppb printed
[2] = 24 hr, wet-g, mean ± SD, unit ppb printed
[3] = 24 hr, mean ± SD, unit ppb printed

Row | SMILES | Concentration in urine [1] | Concentration in cecum [2] | Concentration in colon [2] | Concentration in heart [2] | Concentration in ileum [2] | Concentration in jejunum [2] | Concentration in kidney [2] | Concentration in liver [2] | Concentration in lung [2] | Concentration in plasma [3] | Total amount in cecum (tissue weight) (24 hr, mean ± SD) | Total amount in colon (tissue weight) (24 hr, mean ± SD) | Total amount in heart (tissue weight) (24 hr, mean ± SD) | Total amount in ileum (tissue weight) (24 hr, mean ± SD) | Total amount in kidney (tissue weight) (24 hr, mean ± SD) | Total amount in liver (tissue weight) (24 hr, mean ± SD) | Total amount in lung (tissue weight) (24 hr, mean ± SD) | Total amount in stomach (tissue weight) (24 hr, mean ± SD) | Total amount in testes (tissue weight) (24 hr, mean ± SD) | Total amount in jejunum (tissue weight) (24 hr, mean ± SD) | other results
1 | O=C(O)[C@H]1O[C@@H](Oc2ccc3ccc4cccc5ccc2c3c45)[C@H](O)[C@@H](O)[C@@H]1O [PYOG, Pyrene-1-glucuronide] | 10.1 × 10^3 ± 400^c,d ppb | 1.4 × 10^3 ± 100^d ppb | 1.2 × 10^3 ± 300^d ppb | 1.1 × 10^3 ± 200^d ppb | 170.1 × 10^3 ± 700^a ppb | 87.1 × 10^3 ± 400^b ppb | 20.6 × 10^3 ± 100^c,d ppb | 10.2 × 10^3 ± 300^c,d ppb | 2.4 × 10^3 ± 900^c,d ppb | 446.0 ± 30^d ppb | (950 ± 70) ng | (1.0 × 10^3 ± 200) ng | (860 ± 140) ng | (58 × 10^3 ± 300) ng | (18 × 10^3 ± 880) ng | (70 × 10^3 ± 220) ng | (1.7 × 10^3 ± 640) ng | (1.7 × 10^3 ± 100) ng | (1.1 × 10^3 ± 390) ng |  | Share of PY excreted via urine as PYOG (24 hr urine): around 10%; Concentration in brain (24 hr, brain, wet-g, mean ± SD, unit ppb printed): 210 ± 60^d ppb; Concentration in duodenum (24 hr, duodenum, wet-g, mean ± SD, unit ppb printed): 65.9 × 10^3 ± 800^b,c ppb; Concentration in spleen (24 hr, spleen, wet-g, mean ± SD, unit ppb printed): 790 ± 20^d ppb; Concentration in stomach [2]: 1.7 × 10^3 ± 10^d ppb; Concentration in testes [2]: 1.0 × 10^3 ± 360^d ppb; Concentration in tongue (24 hr, tongue, wet-g, mean ± SD, unit ppb printed): 1.4 × 10^3 ± 500^d ppb; Total amount in brain (tissue weight) (24 hr, mean ± SD): (310 ± 100) ng; Total amount in spleen (tissue weight) (24 hr, mean ± SD): (380 ± 120) ng; Total amount in tongue (tissue weight) (24 hr, mean ± SD): (420 ± 110) ng
2 | Oc1ccc2ccc3cccc4ccc1c2c34 [PYOH, 1-hydroxypyrene] | 546 ± 78^b ppb | 59.4 × 10^3 ± 800^a,b ppb | 13 × 10^3 ± 800^b ppb |  |  |  |  |  |  |  | (40.1 × 10^3 ± 100) ng | (11.4 × 10^3 ± 700) ng |  | (4.1 × 10^3 ± 400) ng | (135 ± 19) ng | (8.5 × 10^3 ± 100) ng |  | (871 ± 64) ng | (92 ± 37) ng | (1.6 × 10^3 ± 200) ng | Share of PY excreted via feces as PYOH (24 hr feces): ~70%; Total amount in feces (mean ± SD): (755.8 × 10^3 ± 700) ng; Total amount in duodenum (tissue weight) (24 hr, mean ± SD): (441 ± 29) ng
3 | O=S(=O)(O)Oc1ccc2ccc3cccc4ccc1c2c34 [PYOS, Pyrene-1-sulfate] | 13 ± 7^b ppb | 89 ± 58^a,b ppb | 54 ± 20^b ppb | 12 ± 4^b ppb | 261 ± 21^a ppb | 39 ± 17^b ppb | 76 ± 38^a,b ppb | 96 ± 38^a,b ppb | 38 ± 13^b ppb | 2 ± 1^b ppb | (57 ± 35) ng | (47 ± 16) ng | (9 ± 3) ng | (96 ± 10) ng | (67 ± 33) ng | (650 ± 260) ng | (29 ± 9) ng | (11 ± 1) ng | (12 ± 3) ng | (48 ± 21) ng | Concentration in stomach [2]: 11 ± 1^b ppb; Concentration in testes [2]: 11 ± 3^b ppb
4 | c1cc2ccc3cccc4ccc(c1)c2c34 [PY, Pyrene] | 4.3 ± 0.0^d,e ppb |  |  |  |  |  |  |  |  |  | (33.0 ± 4.8) ng | (32.0 ± 7.7) ng | (12.7 ± 1.5) ng | (22.0 ± 1.7) ng | (12.1 ± 2.0) ng | (124.5 ± 20.4) ng | (10.7 ± 0.2) ng | (22.4 ± 4.1) ng | (13.3 ± 3.7) ng | (34.5 ± 14.8) ng | Total amount in feces (mean ± SD): (380.9 ± 31.2) ng; Total amount in urine (24 hr urine collection, mean ± SD): (40.7 ± 9.6) ng; Total amount in brain (tissue weight) (24 hr, mean ± SD): (17.5 ± 1.5) ng; Total amount in duodenum (tissue weight) (24 hr, mean ± SD): (19.4 ± 5.3) ng; Total amount in spleen (tissue weight) (24 hr, mean ± SD): (12.4 ± 0.8) ng; Total amount in tongue (tissue weight) (24 hr, mean ± SD): (11.4 ± 0.4) ng
